The source of these data is paper PMC4449373 (Clinical Pharmacokinetics, 2015).

Molecules are shown by their SMILES. Read-outs that look alike come from different tables or passages of the source.

Data set [1] can be described thus: Population pharmacokinetic analysis. Type of data set: in vivo, human.
The conditions of data set [2]: adult subjects with T2D, cited from earlier work.

For `CCCCCCCCCCCCCCCC(=O)N[C@@H](CCC(=O)NCCCC[C@H](NC(=O)[C@H](C)NC(=O)[C@H](C)NC(=O)[C@H](CCC(N)=O)NC(=O)CNC(=O)[C@H](CCC(=O)O)NC(=O)[C@H](CC(C)C)NC(=O)[C@H](Cc1ccc(O)cc1)NC(=O)[C@H](CO)NC(=O)[C@H](CO)NC(=O)[C@@H](NC(=O)[C@H](CC(=O)O)NC(=O)[C@H](CO)NC(=O)[C@@H](NC(=O)[C@H](Cc1ccccc1)NC(=O)[C@@H](NC(=O)CNC(=O)[C@H](CCC(=O)O)NC(=O)[C@H](C)NC(=O)[C@@H](N)Cc1cnc[nH]1)[C@@H](C)O)[C@@H](C)O)C(C)C)C(=O)N[C@@H](CCC(=O)O)C(=O)N[C@@H](Cc1ccccc1)C(=O)N[C@H](C(=O)N[C@@H](C)C(=O)N[C@@H](Cc1c[nH]c2ccccc12)C(=O)N[C@@H](CC(C)C)C(=O)N[C@H](C(=O)N[C@@H](CCCNC(=N)N)C(=O)NCC(=O)N[C@@H](CCCNC(=N)N)C(=O)NCC(=O)O)C(C)C)[C@@H](C)CC)C(=O)O` [liraglutide], the “Decrease in AUC24, pediatric age group” value in data set [1] (compared with an adult subject of the same weight and gender) came to 10%. In addition, the “Geometric mean AUC24 lower at highest observed body weight (216 kg)” value in data set [1] (compared with exposure at reference body weight of 90 kg) is 56%. The “Lower drug exposure (AUC24) for males” value in data set [1] (compared with the reference female subject of the same body weight) is reported as 31%. Besides, the “Mean decrease in glycated hemoglobin [HbA1c]” value in data set [2] (liraglutide 1.2 mg and 1.8 mg alone or in combination with other oral antidiabetic drugs and/or insulin) is “up to −1.5%”. For the same compound, the “Safety and tolerability profile” value in data set [2] (liraglutide 1.2 mg and 1.8 mg) was “acceptable safety and tolerability profile”. For the same compound, the Mean weight loss in data set [2] (liraglutide 1.2 mg) is at most -2.9 kg; in data set [2] (liraglutide 1.8 mg), “up to −3.4 kg”.
